Data from patent US11478475B2, “Inhibitor of histone deacetylase 6 in the treatment of t-cell acute lymphoblastic leukemia (T-ALL) and other neoplasia with high expression of notch-3” (ISTITUTO ONCOLOGICO VENETO IOV-IRCCS, priority 2017, dated 2022).
Residues, ends and D or L forms follow the SMILES beside them. *: point of attachment. Cbz = O=C(OCc1ccccc1)*

What was measured:
[1] = test system: TALL1 cells; test: Cytotoxicity seen as reduction of actin in Western blot; type: cell-based, human; settings: 20 μM
[2] = test system: Notch3 receptor present in the membrane; test: Cytofluorometric analysis of Notch3 membrane expression in T-ALL cells; type: cell-based, human
[3] = test system: Notch3; test: Cytofluorometric evaluation of Notch3 expression in MDA-MB-468 cells; type: cell-based
Protocol: The graph of FIG. 12 confirms the reduction of Notch3 expression in MDA-MB-468 cell membrane after treatment with rocilinostat (8 μM) at 24 hours, in accordance with the results of the WB.
For the assay of FIG. 13, the following protocol was used:
(§1) Day 1: coating of plate with Notch ligands (ligand concentration 4 ng/uL)
(§2) Day 3 treatment with rocilinostat (16 μM) or control (DMSO)
Day 4: Marking+reading by cytofluorometer

[4] = test system: Notch3 receptor; test: Western blotting of Notch3 protein in T-ALL cell lines; type: cell-based, human; settings: 16 hours; for Notch3 protein levels, inhibitor added to TSA: MOLT3 and TALL1 cells, with proteasome or lysosome inhibitor
Protocol: In particular, in FIG. 1A is shown the three cell lines of T-ALL MOLT3, Jurkat and DND41 were treated for 16 hours in vitro with TSA 500 nM.
MOLT3 cells shown in FIG. 3A and TALL1 cells shown in FIG. 3B were treated with TSA 500 nM for 16 hours, and simultaneously in the presence or absence of a proteasome (MG132) or lysosome (chloroquine—CHL) inhibitor. […] The numbers below the bands refer to densitometric analysis.
In FIG. 4A, T-ALL cell lines and primary cells were treated in vitro for 16 hours with the HDAC6 inhibitor Tubacin (2 μM, TUB), HDAC1 inhibitor (2 μM, HDAC1i), or HDAC8 inhibitor (2 μM, HDAC8i). […] In FIG. 4C, the three cell lines of T-ALL MOLT3, Jurkat and DND41 (left) and n=3 primary lines (right) were treated for 24 hours in vitro with the compounds previously described, and cell death was evaluated by marking with Annexin V and analysis by cytofluorometer (*P<0.05, **P<0.01, ***P<0.001, mean±SD of three independent experiments).
(§3) In FIGS. 6A-6C, MOLT3 and TALL1 cell lines were infected with two different lentiviruses that block HDAC6 expression (shHDAC6 #1 and #2).
(§4) In FIG. 8A, JURKAT cells were treated in vitro with rocilinostat at a concentration of 8 μM for 16 hours.

[5] = test system: two T-ALL cell lines; test: Cell viability by ATPlite assay; type: cell-based, human; settings: 48 hours, indicated concentrations
[6] = test system: MDA-MB-468 breast cancer cells; test: Cell mortality by Annexin V/propidium iodide in MDA-MB-468 cells; type: cell-based; settings: 16 μM
Protocol: For the assay of FIG. 14, the following protocol was used:
(§5) Day 1: coating (ligand concentration 4 ng/uL)
(§6) Day 3 treatment with 16 μM rocilinostat
Day 5: marking with Annexin V/propidium iodide+reading of mortality by cytofluorometer

[7] = test system: acetylated tubulin (Ac. α Tub.); test: Western blotting of acetylated tubulin in T-ALL cell lines; type: cell-based, human; settings: 16 hours
Protocol: (§7) In particular, in FIG. 1A is shown the three cell lines of T-ALL MOLT3, Jurkat and DND41 were treated for 16 hours in vitro with TSA 500 nM. The western blotting confirms the decrease of the full length (FL) Notch3 receptor after treatment. Inhibition of HDACs is confirmed by the increase of acetylated tubulin (Ac. α Tub.). […] The treatment with TSA is accompanied by a decrease in the target genes pTα, CR2, DTX-1 in the cell lines shown in FIG. 1D and in the primary cells shown in FIG. 1E. (*P<0.05, **P<0.01, ***P<0.001, mean±SD of three independent experiments).
as §4

[8] = test system: HDAC6; test: Western blotting, inhibition of the target HDAC6 in MDA-MB-468 cells; type: cell-based; settings: 8 μM
Protocol: (§8) In the assay of FIG. 11, Rocilinostat (ACY 1215) is used at a concentration of 8 μM in MDA-MB-468 cells. The expression of Notch3 and other markers was evaluated in cellular lysate by Western blotting.

[9] = test system: acetylated tubulin; test: Acetylated tubulin levels in HCC-1143 cells; type: cell-based; settings: 8 μM, 24 hours
Protocol: (§9) To evaluate the effects of rocilinostat on Notch3 expression in HCC-1143 cells, HCC-1143 cells were treated in vitro with rocilinostat at a concentration of 8 μM for 24 hours. […] The increase in acetylated tubulin levels confirms the activity of rocilinostat.

[10] = test system: HCC-1143 cells; test: Dose-response growth curve in HCC-1143 cells; type: cell-based
[11] = test system: T-ALL cell lines and primary lines; test: Cell death by annexin V marking and cytofluorometer in T-ALL cells; type: cell-based, human; settings: 24 hours
Protocol: (§10) In FIG. 2A and the 7 primary lines shown in FIG. 2B were treated for 24 hours in vitro with TSA 500 nM. Cell death was evaluated by marking with annexin V and analysis with the cytofluorometer. Proliferation inhibition shown in FIG. 2C was assessed in the MOLT3 line by cell count (left panel) and MTS assay (right panel). In FIG. 2D, the Jurkat cells were infected with a control virus (RV-CNTR) or with an expressing Notch3 virus (RV-N3) and subsequently treated with TSA 500 nM for 24 hours. Cell death was evaluated by a luminescence assay for caspase activation (*P<0.05, **P<0.01, ***P<0.001, mean±SD of three independent experiments).
(§11) In FIG. 4A, T-ALL cell lines and primary cells were treated in vitro for 16 hours with the HDAC6 inhibitor Tubacin (2 μM, TUB), HDAC1 inhibitor (2 μM, HDAC1i), or HDAC8 inhibitor (2 μM, HDAC8i). Treatment with Tubacin is shown in FIG. 4B, but not with the other inhibitors, is accompanied by a decrease in the target genes pTα, CR2, DTX-1. In FIG. 4C, the three cell lines of T-ALL MOLT3, Jurkat and DND41 (left) and n=3 primary lines (right) were treated for 24 hours in vitro with the compounds previously described, and cell death was evaluated by marking with Annexin V and analysis by cytofluorometer (*P<0.05, **P<0.01, ***P<0.001, mean±SD of three independent experiments).
In FIG. 5 the T-ALL cell lines were treated in vitro for 24 hours with the HDAC6 Tubacin inhibitor (2 μM, TUB) and cell death was assessed by marking with Annexin V and analysis by cytofluorometer (*P<0.05, **P<0.01, ***P<0.001, mean±SD of three independent experiments).
as §4

[12] = test system: Notch3; test: Western blotting of Notch3 in MDA-MB-468 cells; type: cell-based; settings: 8 μM
Protocol: as §8

[13] = test system: Notch3; test: Cytofluorometric evaluation of Notch3 membrane expression in HCC-1143 cells; type: cell-based
Protocol: The following protocol was used for the graphs of FIG. 18:
as §1, §2
Day 4: marking+reading by cytofluorometer

[14] = test system: NOTCH3 FL protein; test: Notch3 FL protein levels in HCC-1143 cells; type: cell-based; settings: 8 μM, 24 hours
Protocol: as §9

[15] = test system: HCC1143 breast cancer cells; test: Cell mortality by Annexin V/propidium iodide in HCC-1143 cells; type: cell-based; settings: 16 μM
Protocol: For the graphs of FIG. 19, the following protocol was used:
as §5, §6
Day 5: marking with Annexin V/propidium iodide+reading of mortality by cytofluorometer.

[16] = test system: target genes pTα, CR2, DTX-1; test: Expression of Notch target genes in T-ALL cell lines and primary cells; type: cell-based, human
Protocol: as §7, §11

[17] = test system: Notch3 receptor; test: Notch3 protein levels in patient-derived primary T-ALL lines; type: cell-based, human; settings: n=7 patient-derived primary lines; TSA 500 nM, 16 hours
Protocol: Initially we treated 3 T-ALL cell lines in the laboratory with Tricostatin A (TSA), a generic commercial inhibitor that inhibits the whole class of HDACs that is commonly used in experimental practices. […] The same result was obtained by treating 7 patient-derived primary lines in vitro with TSA.
as §7

[18] = test system: MOLT3 line; test: Proliferation by cell count and MTS assay; type: cell-based, human; settings: TSA
Protocol: as §10

[19] = test system: Notch3 and the lysosomal marker LAMP2; test: Immunofluorescence analysis of Notch3/LAMP2 co-localization; type: cell-based; settings: after treatment with TSA, N=21 cells
[20] = test system: Jurkat, MOLT3 and TALL1 cells; test: Cell death by luminescence assay for caspase activation; type: cell-based, human; settings: TSA 500 nM, 24 hours
Protocol: as §10, §3

[21] = MOLT3, Jurkat and DND41, TSA 500 nM

CC(C)C[C@H](NC(=O)[C@H](Cc1ccccc1)NC(=O)c1cnccn1)B(O)O [Bortezomib]
cytotoxicity (reduction of actin in Western blot) [1]: high cytotoxicity | Notch3 expression ([2]; TALL1 cells, 20 μM): negative effect

O=C(CCCCCCNC(=O)c1cnc(N(c2ccccc2)c2ccccc2)nc1)NO [rocilinostat, ricolinostat]
Notch3 expression in cell membrane ([3]; 8 μM, 24 hours): reduction | Notch3 expression, intensity of expression (MFI) ([3]; 16 μM): marked negative effect | Notch3 expression, percentage of positive cells (%) ([3]; 16 μM): marked negative effect | effect on Notch3 expression in the presence of Notch ligands (JAG1 and DLL4) ([3]; 16 μM, ligand 4 ng/uL): not substantially affected | levels of the NOTCH3 FL protein, Western blotting ([4]; JURKAT cells, 8 μM): decreases | cell viability (ATPlite assay) [5]: marked negative effect on cell growth | cell mortality (Annexin V/propidium iodide) ([6]; Day 3 to Day 5): causes the death | cell mortality in the presence of Notch ligands (JAG1 and DLL4) ([6]; ligand 4 ng/uL): maintained or slightly increased | acetylated tubulin levels ([7]; JURKAT cells, 8 μM): increase | target (HDAC6) inhibition ([8]; 16 hours): inhibited | target (HDAC6) inhibition ([8]; 24 hours): inhibited | target (HDAC6) inhibition ([8]; 48 hours): no longer inhibited | acetylated tubulin levels [9]: increase | growth of HCC-1143 cells (dose-response curve) [10]: inhibits the growth of HCC-1143 cells with dose-dependent effects | apoptosis (annexin V) ([11]; JURKAT and TALL1, 8 μM): strong increase of cell death | Notch3 expression, Western blotting ([12]; 16 hours): not reduced | Notch3 expression, Western blotting ([12]; 24 hours): drop in Notch3 | Notch3 expression, intensity of expression (MFI) ([13]; 16 μM): more evident | Notch3 expression, percentage of positive cells (%) ([13]; 16 μM): moderate negative effect | effects on Notch3 expression in the presence of Notch ligands (JAG1 and DLL4) ([13]; 16 μM, ligand 4 ng/uL): not much influenced | Notch3 membrane expression ([13]; rocilinostat alone): reduction | Notch3 membrane expression ([2]; TALL1 cells, 8 μM, 16 hours): reduces | levels of NOTCH3 FL protein [14]: decreases | cell mortality (Annexin V/propidium iodide) ([15]; Day 3 to Day 5): causes the death | cell mortality in the presence of Notch ligands (JAG1 and DLL4) ([15]; ligand 4 ng/uL): maintained

CCN(CC)CCCC(C)Nc1ccnc2cc(Cl)ccc12 (stereo not drawn) [Chloroquine, chloroquine]
Notch3 protein levels, inhibitor added to TSA ([4]; TSA 500 nM): decrease of Notch3 blocked

O=C(CCCCCCC(=O)Nc1ccc([C@H]2O[C@@H](CSc3nc(-c4ccccc4)c(-c4ccccc4)o3)C[C@@H](c3ccc(CO)cc3)O2)cc1)NO [Tubacin]
decrease in Notch3 protein levels ([4]; T-ALL cell lines and primary cells, 2 μM): effects comparable to the generic TSA inhibitor | cell death (annexin V) ([11]; MOLT3, Jurkat, DND41 and n=3 primary lines, 2 μM): effects comparable to the generic TSA inhibitor | sensitivity of TALL1 cell line compared with other cell lines (cell death, Annexin V) ([11]; Tubacin 2 μM): significantly more sensitive | target genes pTα, CR2, DTX-1 ([16]; T-ALL cells, 2 μM, 16 hours): decrease

CC(C)C[C@@H](C=O)NC(=O)[C@H](CC(C)C)NC(=O)[C@H](CC(C)C)NC(=O)OCc1ccccc1 [MG132] (Cbz-Leu-Leu-Leu-aldehyde)
Notch3 protein levels, inhibitor added to TSA ([4]; TSA 500 nM): further lowers

CC(/C=C/C(=O)NO)=C\[C@@H](C)C(=O)c1ccc(N(C)C)cc1 [TSA, Tricostatin A]
full length (FL) Notch3 receptor, western blotting [4, 21]: decrease | acetylated tubulin (Ac. α Tub.) [7, 21]: increase | Notch3 receptor protein levels [17]: confirming the result seen in the cell lines | cell death (annexin V) ([11]; T-ALL cell lines and 7 primary lines, TSA 500 nM): induction of cell death | target genes pTα, CR2, DTX-1 ([16]; cell lines and primary cells, treatment with TSA): decrease | Notch3 receptor present in the membrane ([2]; Jurkat cells, Notch2/3 antibody, cytofluorometer, TSA): decrease | proliferation (cell count, MTS assay) [18]: inhibition of proliferation | co-localization between Notch3 and LAMP2 [19]: increase in co-localization | cell death (caspase activation) after restoring Notch3 levels (RV-N3 vs RV-CNTR) [20]: die significantly less
